# Laboratory results taken from US8314112B2 (Novartis AG, priority 2008, dated 2012).
# Target: T1, human ALK5 (kinase domain, ALK5 T204D) (Homo sapiens, UniProt P36897, T204D)
# T1 construct: The kinase domain of human ALK5 (amino acids 200-503); made in house; host or cells: insect cells (baculovirus)
# T1 sequence (P36897 200-503 T204D): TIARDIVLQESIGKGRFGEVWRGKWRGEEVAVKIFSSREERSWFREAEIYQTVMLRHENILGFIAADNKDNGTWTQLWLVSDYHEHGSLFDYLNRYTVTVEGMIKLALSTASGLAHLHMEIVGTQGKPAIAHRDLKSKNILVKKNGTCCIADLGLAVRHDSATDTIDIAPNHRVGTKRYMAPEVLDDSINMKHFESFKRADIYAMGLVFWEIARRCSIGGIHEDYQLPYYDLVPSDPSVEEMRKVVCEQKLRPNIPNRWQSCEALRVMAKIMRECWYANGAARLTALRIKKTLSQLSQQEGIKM
# Test: ALK5 kinase assay ([33P] phosphate incorporation into casein)
# Type: biochemical
# Conditions: casein substrate, 1 μM unlabelled ATP
# Procedure: The kinase activity of ALK5 is assessed by measuring radiolabelled phosphate [33P] incorporation in to the generic substrate, casein. The kinase domain of human ALK5 (amino acids 200-503) is fused to an N-terminal histidine tag. The kinase activity of ALK5 is rendered constitutive via point mutation at amino acid 204 (threonine to aspartate modification, ALK5 T204D) and the kinase construct is engineered to be expressed from a baculovirus expression construct in insect cells. The purified, recombinantly-expressed histidine-tagged ALK5 T204D protein is dissolved at 5.4 mg/ml in 50 mM Tris-HCl pH 8.0, 150 mM NaCl, 5 mM DTT. ALK5 T204D is dissolved to 2.5 μg/ml in assay buffer (Assay buffer: 20 mM Tris-HCl pH 7.4, 10 mM MgCl2, 2 mM MnCl2) on the day of use.
# Test compounds and reference compounds are dissolved in assay buffer without DTT containing 5% (v/v) DMSO. Stock solutions of test and reference compounds are diluted in assay buffer with DTT (1.25 mM) containing 4.5% (v/v) DMSO. 10 μl of test or reference compound are added to the appropriate wells of 96 well U-bottomed plate. Total enzyme activity is determined by measuring ALK5 T204D activity in the absence of ALK5 kinase inhibitor reference compounds. Non-specific binding (NSB) is determined by measuring the activity of ALK5 T204D in the presence of ALK5 kinase inhibitor reference compounds. 10 μl of dephosphorylated casein stock solution (dephosphorylated casein is dissolved in ddH2O at 20 mg/ml) is added per well (200 μg/well final assay concentration). 20 μl of ALK5 T204D (2.5 μg/ml solution) is added per well (50 ng/well final assay concentration). The plates are left to incubate at room temperature for 10 minutes.
# 10 μl of ATP mix is added to the well to initiate the reaction (0.66 nM [^33P]ATP/1 μM unlabelled ATP/well final assay concentration). The ATP mix is prepared as follows, unlabelled ATP (3 mM) is dissolved in ddH2O and pH adjusted to 7.4. The stock concentration of [^33P]ATP is 10 μCi/μl. The appropriate volume of [^33P]ATP is added to unlabelled ATP solution such that the final assay concentration per well is 0.1 μCi. Following addition of the ATP mix, the plates are incubated at room temperature for 50 minutes. The kinase reaction is terminated by the addition of 50 μL Stop Buffer (20 mM Tris-HCl pH 7.4, 10 mM EDTA).
# 75 μl/well from the reaction plate is transferred to a Multiscreen-IP plate (MultiScreen-IP plates are prepared by added 50 μL of 70% (v/v) ethanol per well and incubated for 5 minutes at room temperature. The ethanol is removed by aspiration via a MultiScreen HTS Vaccum Manifold unit (Millipore, Cat no: MSVMHT500). The plates are washed twice by adding 200 μl/well ddH2O). The MultiScreen-IP plate is incubated at room temperature for 30 minutes to allowing binding of casein to the plate. The MultiScreen-IP plates are washed three times by adding 200 μl/well 100 mM phosphoric acid solution and the gasket is carefully removed from the back of the MultiScreen-IP plate and the plate dried in the oven for 30 minutes. The MultiScreen-IP plate is backsealed, 50 μL of Microscint™20 is added, then the plates are topsealed and radiolabelled casein detected and quantified on a TopCount™ plate-reader using the ^33P scintillation protocol.
row,SMILES,IC50
1,"Cc1cccc(-c2nc(-c3cncc(NC(=O)CCCN(C)C)c3)c3cc[nH]c3n2)n1 [Example 30, 4-Dimethylamino-N-{5-[2-(6-methyl-pyridin-2-yl)-7H-pyrrolo[2,3-d]pyrimidin-4-yl]-pyridin-3-yl}-butyramide]",64 nM
2,"Cc1cccc(-c2nc(-c3cncc(NC(=O)CCN(C)C)c3)c3cc[nH]c3n2)n1 [Example 31, 3-Dimethylamino-N-{5-[2-(6-methyl-pyridin-2-yl)-7H-pyrrolo[2,3-d]pyrimidin-4-yl]-pyridin-3-yl}-propionamide]",85 nM
3,"Cc1cccc(-c2nc(-c3cncc(-c4ccccc4C)c3)c3cc[nH]c3n2)n1 [Example 32, 2-(6-Methyl-pyridin-2-yl)-4-(5-o-tolyl-pyridin-3-yl)-7H-pyrrolo[2,3-d]pyrimidine]",762 nM
4,"Cc1cccc(-c2nc(-c3cncc(-c4ccccc4Cl)c3)c3cc[nH]c3n2)n1 [Example 33, 4-[5-(2-Chloro-phenyl)-pyridin-3-yl]-2-(6-methyl-pyridin-2-yl)-7H-pyrrolo[2,3-d]pyrimidine]",90 nM
5,"Cc1cccc(-c2nc(-c3cncc(-c4cccc(CN5CCN(C(C)C)CC5)c4)c3)c3cc[nH]c3n2)n1 [Example 34, 4-{5-[3-(4-Isopropyl-piperazin-1-ylmethyl)-phenyl]-pyridin-3-yl}-2-(6-methyl-pyridin-2-yl)-7H-pyrrolo[2,3-d]pyrimidine]",51 nM
6,"Cc1cccc(-c2nc(-c3cncc(-c4ccc(CN5CCN(C(C)C)CC5)cc4)c3)c3cc[nH]c3n2)n1 [Example 35, 4-{5-[4-(4-Isopropyl-piperazin-1-ylmethyl)-phenyl]-pyridin-3-yl}-2-(6-methyl-pyridin-2-yl)-7H-pyrrolo[2,3-d]pyrimidine]",44 nM
7,"CNCc1cccc(-c2cncc(-c3nc(-c4cccc(C)n4)nc4[nH]ccc34)c2)c1 [Example 36, Methyl-(3-{5-[2-(6-methyl-pyridin-2-yl)-7H-pyrrolo[2,3-d]pyrimidin-4-yl]-pyridin-3-yl}-benzyl)-amine]",8 nM
8,"Cc1cccc(-c2nc(-c3cncc(-c4cccc(CN(C)C)c4)c3)c3cc[nH]c3n2)n1 [Example 37, Dimethyl-(3-{5-[2-(6-methyl-pyridin-2-yl)-7H-pyrrolo[2,3-d]pyrimidin-4-yl]-pyridin-3-yl}-benzyl)-amine]",33 nM
9,"Cc1cccc(-c2nc(-c3cncc(-c4ccc(CN(C)C)cc4)c3)c3cc[nH]c3n2)n1 [Example 38, Dimethyl-(4-{5-[2-(6-methyl-pyridin-2-yl)-7H-pyrrolo[2,3-d]pyrimidin-4-yl]-pyridin-3-yl}-benzyl)-amine]",12 nM
10,"CNCc1ccc(-c2cncc(-c3nc(-c4cccc(C)n4)nc4[nH]ccc34)c2)cc1 [Example 39, Methyl-(4-{5-[2-(6-methyl-pyridin-2-yl)-7H-pyrrolo[2,3-d]pyrimidin-4-yl]-pyridin-3-yl}-benzyl)-amine]",6 nM
11,"Cc1cccc(-c2nc(-c3cncc(-c4ccc(C(=O)N5CCNCC5)cc4)c3)c3cc[nH]c3n2)n1 [Example 40, (4-{5-[2-(6-Methyl-pyridin-2-yl)-7H-pyrrolo[2,3-d]pyrimidin-4-yl]-pyridin-3-yl}-phenyl)-piperazin-1-yl-methanone]",3 nM
12,"Cc1cccc(-c2nc(-c3cncc(N4CCN(C)CC4)c3)c3cc[nH]c3n2)n1 [Example 41, 4-[5-(4-Methyl-piperazin-1-yl)-pyridin-3-yl]-2-(6-methyl-pyridin-2-yl)-7H-pyrrolo[2,3-d]pyrimidine]",130 nM

# Further lines, results first:
row,IC50,SMILES
1,17 nM,"CN1CCN(C(=O)c2ccc(-c3cncc(-c4nc(-c5ccccn5)nc5[nH]ccc45)c3)cc2)CC1 [Example 42, (4-Methyl-piperazin-1-yl)-{4-[5-(2-pyridin-2-yl-7H-pyrrolo[2,3-d]pyrimidin-4-yl)-pyridin-3-yl]-phenyl}-methanone]"
2,6 nM,"CN1CCN(Cc2ccc(-c3cncc(-c4nc(-c5ccccn5)nc5[nH]ccc45)c3)cc2)CC1 [Example 43, 4-{5-[4-(4-Methyl-piperazin-1-ylmethyl)-phenyl]-pyridin-3-yl}-2-pyridin-2-yl-7H-pyrrolo[2,3-d]pyrimidine]"
3,424 nM,"Brc1cncc(-c2nc(-c3ccccn3)nc3[nH]ccc23)c1 [Example 44, 4-(5-Bromo-pyridin-3-yl)-2-pyridin-2-yl-7H-pyrrolo[2,3-d]pyrimidine]"
4,19 nM,"CN1CCN(Cc2cccc(-c3cncc(-c4nc(-c5ccccn5)nc5[nH]ccc45)c3)c2)CC1 [Example 45, 4-{5-[3-(4-Methyl-piperazin-1-ylmethyl)-phenyl]-pyridin-3-yl}-2-pyridin-2-yl-7H-pyrrolo[2,3-d]pyrimidine]"
5,264 nM,"Cc1cccc(-c2cc(-c3cccnc3)c3cc[nH]c3n2)n1 [Example 46, 6-(6-methyl-pyridin-2-yl)-4-pyridin-3-yl-1H-pyrrolo[2,3-b]pyridine]"
6,28 nM,"COc1cncc(-c2cc(-c3cccc(C)n3)nc3[nH]ccc23)c1 [Example 47, 4-(5-Methoxy-pyridin-3-yl)-6-(6-methyl-pyridin-2-yl)-1H-pyrrolo[2,3-b]pyridine]"
7,1340 nM,"Cc1cccc(-c2nc(-c3cncc(N4CCCCC4)c3)c3cc[nH]c3n2)n1 [Example 48, 5′-[2-(6-Methyl-pyridin-2-yl)-7H-pyrrolo[2,3-d]pyrimidin-4-yl]-3,4,5,6-tetrahydro-2H-[1,3′]bipyridinyl]"
8,1080 nM,"Cc1cccc(-c2nc(-c3cncc(N4CCC(O)CC4)c3)c3cc[nH]c3n2)n1 [Example 49, 5′-[2-(6-Methyl-pyridin-2-yl)-7H-pyrrolo[2,3-d]pyrimidin-4-yl]-3,4,5,6-tetrahydro-2H-[1,3′]bipyridinyl-4-ol]"
9,149 nM,"Cc1cccc(-c2nc(-c3cncc(NC(=O)CCN)c3)c3cc[nH]c3n2)n1 [Example 50, 3-amino-N-{5-[2-(6-methyl-pyridin-2-yl)-7H-pyrrolo[2,3-d]pyrimidin-4-yl]-pyridin-3-yl}-propionamide]"
10,660 nM,"Cc1cccc(-c2nc(-c3cncc(N4CCOCC4)c3)c3cc[nH]c3n2)n1 [Example 51, 2-(6-Methyl-pyridin-2-yl)-4-(5-morpholin-4-yl-pyridin-3-yl)-7H-pyrrolo[2,3-d]pyrimidine]"
11,435 nM,"CC(=O)NCCCC(=O)Nc1cncc(-c2nc(-c3cccc(C)n3)nc3[nH]ccc23)c1 [Example 52, 4-Acetylamino-N-{5-[2-(6-methyl-pyridin-2-yl)-7H-pyrrolo[2,3-d]pyrimidin-4-yl]-pyridin-3-yl}-butyramide]"
12,570 nM,"CC(=O)NCCC(=O)Nc1cncc(-c2nc(-c3cccc(C)n3)nc3[nH]ccc23)c1 [Example 53, 3-Acetylamino-N-{5-[2-(6-methyl-pyridin-2-yl)-7H-pyrrolo[2,3-d]pyrimidin-4-yl]-pyridin-3-yl}-propionamide]"
13,119 nM,"Cc1cccc(-c2nc(-c3cncc(NC(=O)CCO)c3)c3cc[nH]c3n2)n1 [Example 54, 3-Hydroxy-N-{5-[2-(6-methyl-pyridin-2-yl)-7H-pyrrolo[2,3-d]pyrimidin-4-yl]-pyridin-3-yl}-propionamide]"
14,813 nM,"Cc1cccc(-c2nc(-c3cnccc3C)c3cc[nH]c3n2)n1 [Example 55, 4-(4-Methyl-pyridin-3-yl)-2-(6-methyl-pyridin-2-yl)-7H-pyrrolo[2,3-d]pyrimidine]"
